Reference: US20160194358A1, “LINEAR PEPTIDE ANTIBIOTCS” (priority 2013, published 2016)
≈ marks a conversion by molar mass, not a printed value. Like-named read-outs stand apart in the source and are kept apart here. Where a SMILES comes first, the peptide text is derived from it. The star is where a group is joined. boroAla((+)-pinanediol) = C[C@H](N*)B1O[C@@H]2C[C@@H]3C[C@@H](C3(C)C)[C@]2(C)O1; Propanoyl(3-decylamino) = CCCCCCCCCCNCCC(=O)*

Assays:
[1] = system: MRSA strain USA300; details: 0.5 ug/mL imipenem plus 0.125 ug/mL Compound 217
Description: Time-kill experiments were performed in 96-well incubation plates using Mueller Hinton II Broth+0.002% Tween-80 as the growth media. Individual wells contained imipenem alone, Compound 217 alone, or a combination of both agents at various concentrations. MRSA strain USA300 was grown overnight at 35° C. on Mueller Hinton Agar plates, and colonies were suspended in Mueller Hinton II Broth+0.002% Tween-80 to a final density of 2*10^8 cfu/mL. To each well of the incubation plates, 5 uL of this suspension were added, resulting in an initial density of 1*10^7 cfu/mL. Plates were incubated at 35° C., and at various time points 30 μl samples were removed, mixed 1:1 with 25 mg/ml activated carbon, serially diluted in sterile phosphate buffered saline supplemented with 0.05% Tween 20, and spotted onto Mueller Hinton Agar plates to enable cfu quantification. Colonies were counted and the cfu/ml at each time point calculated by based on the dilution factor and volume spotted.

[2] = system: MRSA strain USA300
[3] = system: MRSA strain USA300; details: Compound 217 with imipenem, synergy defined as sum of FICs ≦0.5
Description: In this assay in each axis of a 96-well plate contains a 2-fold dilution of a given agent, such that each well contains a unique combination of the agents being tested.
To create a checkerboard dilution scheme, imipenem was diluted in Mueller Hinton II Broth+0.002% Tween-80 to twice the final desired concentration, and six 2-fold serial dilutions were performed in the same media yielding seven imipenem concentrations. Dilutions of Compound 217 were prepared similarly except that ten dilutions were performed for a total of eleven concentrations. For each concentration of imipenem, 50 uL aliquots were transferred to columns 1-12 of a given row of a 96-well clear polypropylene assay plate. For each concentration of Compound 217, 50 uL were transferred to rows A-H of a given column of the same plate. […]
MRSA strain USA300 was grown overnight at 35° C. on Mueller Hinton Agar plates, and colonies were suspended in Mueller Hinton II Broth+0.002% Tween-80 to a final density of 1*10^7 cfu/ml. […] The plate was incubated at 35° C. for 22 hours after which growth was determined via visual inspection. For each sub-MIC concentration of imipenem, the concentration of Compound 217 required to prevent visible growth was recorded, and the fractional inhibitor concentration (FIC) of each agent was calculated by dividing the concentration of each agent by MIC of the agent alone. […]

[4] = system: methicillin resistant Staphylococcus aureus (MRSA) strain USA300 (NRS384); details: MRSA USA300 (NRS384); 35° C., 22 hours
How it was run: (§1)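 CLSI broth microdilution in cation-adjusted Mueller Hinton Broth with 0.002% Tween-80, two-fold dilutions starting at 64 μg/ml.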

[5] = system: Escherichia coli strain MC4100 IMP-4213, which harbors an LptD mutation; details: E. coli MC4100 IMP-4213; 35° C., 22 hours
How it was run: as §1

[6] = MRSA USA300, partner Amoxicillin/Clav at 1/4x its MIC
[7] = MRSA USA300, partner Ampicillin at 1/4x its MIC
[8] = MRSA USA300, partner Azlocillin at 1/4x its MIC
[9] = MRSA USA300, partner Biapenem at 1/4x its MIC
[10] = MRSA USA300, partner Carbenicillin at 1/4x its MIC
[11] = MRSA USA300, partner Cefaclor at 1/4x its MIC
[12] = MRSA USA300, partner Cefamandole at 1/4x its MIC
[13] = MRSA USA300, partner Cefazolin at 1/4x its MIC
[14] = MRSA USA300, partner Cefdinir at 1/4x its MIC
[15] = MRSA USA300, partner Cefepime at 1/4x its MIC
[16] = MRSA USA300, partner Cefixime at 1/4x its MIC
[17] = MRSA USA300, partner Cefmetazole at 1/4x its MIC
[18] = MRSA USA300, partner Cefonicid at 1/4x its MIC
[19] = MRSA USA300, partner Cefotaxime at 1/4x its MIC
[20] = MRSA USA300, partner Cefotetan at 1/4x its MIC
[21] = MRSA USA300, partner Cefoxitin at 1/4x its MIC
[22] = MRSA USA300, partner Cefpodoxime at 1/4x its MIC
[23] = MRSA USA300, partner Cefprozil at 1/4x its MIC
[24] = MRSA USA300, partner Ceftazidime at 1/4x its MIC
[25] = MRSA USA300, partner Ceftizoxime at 1/4x its MIC
[26] = MRSA USA300, partner Ceftriaxone at 1/4x its MIC
[27] = MRSA USA300, partner Cephalothin at 1/4x its MIC
[28] = MRSA USA300, partner Doripenem at 1/4x its MIC
[29] = MRSA USA300, partner Ertapenem at 1/4x its MIC
[30] = MRSA USA300, partner Faropenem at 1/4x its MIC
[31] = MRSA USA300, partner Imipenem at 1/4x its MIC
[32] = MRSA USA300, partner Mecillinam at 1/4x its MIC
[33] = MRSA USA300, partner Meropenem at 1/4x its MIC
[34] = MRSA USA300, partner Methicillin at 1/4x its MIC
[35] = MRSA USA300, partner Mezlocillin at 1/4x its MIC
[36] = MRSA USA300, partner Moxalactam at 1/4x its MIC
[37] = MRSA USA300, partner Oxacillin at 1/4x its MIC
[38] = MRSA USA300, partner Piperacillin/tazobactam at 1/4x its MIC
[39] = MRSA USA300, partner Ticarcillin at 1/4x its MIC

## CCCCCCCCCCNCCC(=O)N[C@@H](CCCCN)C(=O)N[C@H](C(=O)N[C@@H](C)C(=O)N[C@@H](CCCCN)C(=O)N[C@@H](C)B1O[C@@H]2C[C@@H]3C[C@@H](C3(C)C)[C@]2(C)O1)[C@@H](C)O [Compound 217] ({Propanoyl(3-decylamino)}-KTAK-{boroAla((+)-pinanediol)})
[1]
  time-kill: reduction of viable cells, combination vs either agent alone: synergistic
[2]; [6]
  Compound 217 SIC: 0.125 µg/mL
  Fold reduction in Compound 217 MIC: 4
[2]; [7]
  Compound 217 SIC: 0.25 µg/mL
  Fold reduction in Compound 217 MIC: 2
[2]; [8]
  Compound 217 SIC: 0.125 µg/mL
  Fold reduction in Compound 217 MIC: 4
[2]; [9]
  Compound 217 SIC: 0.0156 µg/mL
  Fold reduction in Compound 217 MIC: 32
[2]; [10]
  Compound 217 SIC: 0.125 µg/mL
  Fold reduction in Compound 217 MIC: 4
[2]; [11]
  Compound 217 SIC: 0.125 µg/mL
  Fold reduction in Compound 217 MIC: 4
[2]; [12]
  Compound 217 SIC: 0.125 µg/mL
  Fold reduction in Compound 217 MIC: 4
[2]; [13]
  Compound 217 SIC: 0.0625 µg/mL
  Fold reduction in Compound 217 MIC: 8
[2]; [14]
  Compound 217 SIC: 0.0078 µg/mL
  Fold reduction in Compound 217 MIC: 64
[2]; [15]
  Compound 217 SIC: 0.03125 µg/mL
  Fold reduction in Compound 217 MIC: 16
[2]; [16]
  Compound 217 SIC: 0.0625 µg/mL
  Fold reduction in Compound 217 MIC: 8
[2]; [17]
  Compound 217 SIC: 0.125 µg/mL
  Fold reduction in Compound 217 MIC: 4
[2]; [18]
  Compound 217 SIC: 0.125 µg/mL
  Fold reduction in Compound 217 MIC: 4
[2]; [19]
  Compound 217 SIC: 0.0625 µg/mL
  Fold reduction in Compound 217 MIC: 8
[2]; [20]
  Compound 217 SIC: 0.125 µg/mL
  Fold reduction in Compound 217 MIC: 4
[2]; [21]
  Compound 217 SIC: 0.125 µg/mL
  Fold reduction in Compound 217 MIC: 4
[2]; [22]
  Compound 217 SIC: 0.0625 µg/mL
  Fold reduction in Compound 217 MIC: 8
[2]; [23]
  Compound 217 SIC: 0.125 µg/mL
  Fold reduction in Compound 217 MIC: 4
[2]; [24]
  Compound 217 SIC: 0.125 µg/mL
  Fold reduction in Compound 217 MIC: 4
[2]; [25]
  Compound 217 SIC: 0.0625 µg/mL
  Fold reduction in Compound 217 MIC: 8
[2]; [26]
  Compound 217 SIC: 0.03125 µg/mL
  Fold reduction in Compound 217 MIC: 16
[2]; [27]
  Compound 217 SIC: 0.03125 µg/mL
  Fold reduction in Compound 217 MIC: 16
[2]; [28]
  Compound 217 SIC: 0.03125 µg/mL
  Fold reduction in Compound 217 MIC: 16
[2]; [29]
  Compound 217 SIC: 0.125 µg/mL
  Fold reduction in Compound 217 MIC: 4
[2]; [30]
  Compound 217 SIC (μg/ml): ≦0.0039 μg/ml
  Fold reduction in Compound 217 MIC: >128
[2]; [31]
  Compound 217 SIC: 0.03125 µg/mL
  Fold reduction in Compound 217 MIC: 16
[2]; [32]
  Compound 217 SIC: 0.25 µg/mL
  Fold reduction in Compound 217 MIC: 2
[2]; [33]
  Compound 217 SIC: 0.01563 µg/mL
  Fold reduction in Compound 217 MIC: 32
[2]; [34]
  Compound 217 SIC: 0.125 µg/mL
  Fold reduction in Compound 217 MIC: 4
[2]; [35]
  Compound 217 SIC: 0.125 µg/mL
  Fold reduction in Compound 217 MIC: 4
[2]; [36]
  Compound 217 SIC: 0.03125 µg/mL
  Fold reduction in Compound 217 MIC: 16
[2]; [37]
  Compound 217 SIC: 0.0625 µg/mL
  Fold reduction in Compound 217 MIC: 8
[2]; [38]
  Compound 217 SIC: 0.125 µg/mL
  Fold reduction in Compound 217 MIC: 4
[2]; [39]
  Compound 217 SIC: 0.0625 µg/mL
  Fold reduction in Compound 217 MIC: 8
[2]; MRSA strain USA300, partner beta-lactam: None
  Compound 217 MIC: 0.5 mg/L
[2]; partner beta-lactam at 1/4x its MIC
  synergy with partner beta-lactam antibiotics (SIC ≤ 1/4 MIC): synergize
[3]
  sum of the FICs: < 0.5
[4]
  MIC (μg/mL) S. aureus: 0.31 µg/mL (≈ 0.359 µM)
[5]
  MIC (μg/mL) E. coli: 23 µg/mL (≈ 26.7 µM)
